The values that follow come from patent US20260285853A1, “COMPOUNDS AND METHODS FOR MODULATING SPLICING” (REMIX THERAPEUTICS INC., priority 2023, published 2026).

One may read the AC50 as the concentration giving half of the maximal activity seen. A word on the IC50: it is the concentration at which inhibition is half-maximal. For orientation: GI50 means the concentration that inhibits growth by half.

Structures are written as SMILES.

Holding throughout (type): cell-based
In assay [1] the test system is HTT mRNA. The assay can be described thus: Splicing RT-qPCR assay (THP), Table 2A. The conditions noted are these: Table 2A (THP); for AC50: AJ mRNA increase, read-out: HTT AJ (increase in alternative junction mRNA, AC50); for IC50: CJ mRNA decrease, read-out: HTT CJ (decrease in canonical junction mRNA, IC50). On the technique in general: Real-time PCR tracks product formation cycle by cycle.

Assay [2] deals with MYB mRNA. The assay can be described thus: Splicing RT-qPCR assay (THP), Table 2A. The conditions noted are these: Table 2A (THP); for AC50: AJ mRNA increase, read-out: MYB AJ (increase in alternative junction mRNA, AC50); for IC50: CJ mRNA decrease, read-out: MYB CJ (decrease in canonical junction mRNA, IC50).
Assay [3] deals with HTT mRNA. The assay can be described thus: Gene panel canonical junction qPCR assay, decrease in CJ mRNA, Table 3. The settings on record: decrease in canonical junction (CJ) mRNA, gene panel qPCR, Table 3. As for the experimental part:
(§1) Compounds described herein were used to modulate RNA transcript abundance in cells. The expression of a target mRNA was measured by detecting the formation of an exon-exon junction in the canonical transcript (CJ). A compound mediated exon-inclusion event was detected by observing an increase in formation of a new junction with an alternative exon (AJ). Real-time qPCR assays were used to detect these splicing switches and interrogate the potency of various compounds towards different target genes. A high-throughput real time quantitative PCR (RT-qPCR) assay was developed to measure these two isoforms of the mRNA (CJ and AJ) for exemplary genes, such as HTT, SMN2, and MYB, together with a control housekeeping gene, GAPDH or GUSB or PPIA, used for normalization. Briefly, the A673 or K562 cell line was treated with various compounds described herein (e.g., compounds of Formula (I)). After treatment, the levels of the HTT, MYB, or SMN2 mRNA targets were determined from each sample of cell lysate by cDNA synthesis followed by qPCR.
(§2) The A673 cell line was cultured in DMEM with 10% FBS. Cells were diluted with full growth media and plated in a 96-well plate (15,000 cells in 100 ul media per well). The plate was incubated at 37° C. with 5% CO2 for 24 hours to allow cells to adhere. An 11-point 3-fold serial dilution of the compounds was made in DMSO then diluted in media in an intermediate plate. Compounds were transferred from the intermediate plate to the cell plate with the top dose at a final concentration of 10 uM in the well. Final DMSO concentration was kept at or below 0.25%. The cell plate was returned to the incubator at 37° C. with 5% CO2 for an additional 24 hours.
(§3) The K562 cell line was cultured in IMDM with 10% FBS. For K562, cells were diluted with full growth media and plated in either a 96-well plate (50,000 cells in 50 uL media per well) or a 384-well plate (8,000-40,000 cells in 45 uL media per well). An 11-point 3-fold serial dilution of the compounds were made in DMSO then diluted in media in an intermediate plate. Compound was transferred from the intermediate plate to the cell plate with the top dose at a final concentration of 10 uM in the well. Final DMSO concentration was kept at or below 0.25%. Final volume was 100 uL for 96-well plate and 50 uL for 384-well plate. The cell plate was then placed in an incubator at 37° C. with 5% CO2 for 24 hours.
(§4) The data analysis was performed by first determining the ΔCt vs the housekeeper gene. This ΔCt was then normalized against the DMSO control (ΔΔCt) and converted to RQ (relative quantification) using the 2^(−ΔΔCt) equation. The RQ were then converted to a percentage response by arbitrarily setting an assay window of 3.5 and 4.0 ΔCt for HTT-CJ and MYB-CJ respectively and an assay window of 9 and 3 ΔCt for HTT-AJ and MYB-AJ in 96 well format (50,000 K562 cells/well and 15,000 A673 cells per well) and an assay window of 3 and 4 ΔCt for HTT-CJ and MYB-CJ respectively and an assay window of 5 and 3 ΔCt for HTT-AJ and MYB-AJ respectively in 384 well format (8,000 K562 cells/well example). […] The percentage response was then fitted to the 4 parametric logistic equation to evaluate the concentration dependence of compound treatment. The increase in AJ mRNA is reported as AC50 (compound concentration having 50% response in AJ increase) while the decrease in CJ mRNA levels is reported as IC50 (compound concentration having 50% response in CJ decrease).
(§5) Additional studies were carried out for a larger panel of genes using the protocol provided above. The junction between flanking upstream and downstream exons was used to design canonical junction qPCR assays. At least one of the forward primer, reverse primer or the CY5-labeled 5′ nuclease probe (with 3′ quencher such as ZEN/Iowa Black FQ) was designed to overlap with the exon junction to capture the CJ mRNA transcript. […]

Assay [4] deals with MYB mRNA. The assay is described as above. The settings on record: decrease in canonical junction (CJ) mRNA, gene panel qPCR, Table 3. As for the experimental part:
as §1, §2, §3, §4, §5

Assay [5] deals with SH-SY5Y (human neuroblastoma) cells. Briefly: Cell viability, Cell Titer Glo 2.0 assay. The conditions noted are these: read-out: Viability SHSY5Y.3 GI50. The procedure:
Compounds described herein were screened for toxicity in K562 (human chronic myelogenous leukemia) and SH-SY5Y (human neuroblastoma) cells using a Cell Titer Glo 2.0 assay.
• Promega CellTiter-Glo® 2.0 Cell Viability Assay (cat #G9241) • Corning 384-well TC-treated microplates (cat #3570)
Cells were plated at 500 cells/well (K562 cells) in 45 μL of IMDM supplemented with 10% FBS in a 384-well opaque plate. Wells containing only medium were used as a blank control. Test compounds (e.g., compounds of Formula (I) or (II) were first serially diluted in DMSO then diluted 1:100 with IMDM+10% FBS. The final concentration of DMSO was 0.1% in each well. The cells were incubated for 72 hours at 37° C. and 5% CO2 before assaying with Cell Titer Glo 2.0 reagent.
(In ATP-based viability assays light output follows the ATP content of the culture.)

Consider `Cc1cn2cc(NC(=O)c3ccc(N4CC[C@H]5CNCC[C@H]54)c4cn(C)nc34)nc2c(C)n1` (stereo in doubt) [Compound 502], for which the half-maximal activity concentration (AC50) in assay [1] and in assay [2] was 0.1 to 1 µM in each case. The IC50 in assay [1], in assay [2], in assay [3] and in assay [4] was 0.1 to 1 µM throughout. Besides, the GI50 in assay [5] lay within 0.1 to 1 µM.
Take `Cc1cn2cc(NC(=O)c3ncc(N4CCC(NC5CC5)CC4)c4cn(C)nc34)nc2c(C)n1` [Compound 264, 4-[4-(cyclopropylamino)-1-piperidyl]-N-(6,8-dimethylimidazo[1,2-a]pyrazin-2-yl)-2-methyl-pyrazolo[3,4-c]pyridine-7-carboxamide]: in assay [1], the AC50 was more than 10 µM and the IC50 was more than 10 µM. In assay [2], the AC50 was more than 10 µM and the IC50 is more than 10 µM.
Regarding `Cc1cn2cc(NC(=O)c3ccc(N4CCNCC4)c4cn(C)nc34)cc(Br)c2n1` [Compound 265, N-(8-bromo-2-methyl-imidazo[1,2-a]-pyridin-6-yl)-2-methyl-4-piperazin-1-yl-indazole-7-carboxamide], the GI50 in assay [5] was 1 to 10 µM.
`CCNC1CCN(c2cc(F)c(C(=O)Nc3cn4c(N)c(C)nc4c(F)c3OC)c3nn(C)cc23)CC1` [Compound 310, N-(3-amino-8-fluoro-7-methoxy-2-methyl-imidazo[1,2-a]pyridin-6-yl)-4-[4-(ethylamino)-1-piperidyl]-6-fluoro-2-methyl-indazole-7-carboxamide]: the AC50 in assay [1] and in assay [2] was more than 10 µM each time. The IC50 in assay [1], in assay [2], in assay [3] and in assay [4] was more than 10 µM in each case. For the same molecule, the GI50 in assay [5] was more than 10 µM.
Consider `CCNC1CCN(c2ccc(C(=O)Nc3cn4cc(CC)nc(C)c4n3)c3nn(C)cc23)CC1` [Compound 311, N-(6-ethyl-8-methylimidazo [1,2-a]pyrazin-2-yl)-4-(4-(ethylamino)piperidin-1-yl)-2-methyl-2H-indazole-7-carboxamide 2,2,2-trifluoroacetate], for which the AC50 in assay [1] and in assay [2] was more than 10 µM in each case. In addition, the IC50 in assay [1], in assay [2], in assay [3] and in assay [4] was more than 10 µM throughout. Also, the GI50 in assay [5] was more than 10 µM.
`CCNC1CCN(c2ccc(C(=O)Nc3cn4cc(C)nc(C5CC5)c4n3)c3nn(C)cc23)CC1` [Compound 312, N-(8-cyclopropyl-6-methyl-imidazo[1,2-a]pyrazin-2-yl)-4-[4-(ethylamino)-1-piperidyl]-2-methyl-indazole-7-carboxamide]: the AC50 in assay [1] and in assay [2] was 1 to 10 µM each time. The half-inhibitory concentration (IC50) in assay [1], in assay [2], in assay [3] and in assay [4] was 1 to 10 µM in each case. In assay [5], the GI50 lay in the range of 1 to 10 µM.
Consider `CCNC1CCN(c2ccc(C(=O)Nc3cc(Oc4ccccc4Cl)c4nc(C)cn4c3)c3nn(C)cc23)CC1` [Compound 313, N-[8-(2-chlorophenoxy)-2-methylimidazo-[1,2-a]pyridin-6-yl]-4-[4-(ethylamino)-1-piperidyl]-2-methyl-indazole-7-carboxamide], for which the half-maximal activity concentration (AC50) in assay [1] is more than 10 µM; in assay [2], 1 to 10 µM. Moreover, the IC50 in assay [1], in assay [2], in assay [3] and in assay [4] was more than 10 µM throughout. In addition, the GI50 in assay [5] lay within 1 to 10 µM.
As to `CCNC1CCN(c2ccc(C(=O)Nc3cc(Oc4cccc(Cl)c4)c4nc(C)cn4c3)c3nn(C)cc23)CC1` [Compound 314, N-[8-(3-chlorophenoxy)-2-methylimidazo-[1,2-a]pyridin-6-yl]-4-[4-(ethylamino)-1-piperidyl]-2-methyl-indazole-7-carboxamide], the AC50 in assay [1] was 1 to 10 µM; in assay [2], less than 0.1 µM. Moreover, the IC50 in assay [1] fell in the range of 1 to 10 µM; in assay [2], 0.1 to 1 µM; in assay [3], 1 to 10 µM; in assay [4], 0.1 to 1 µM. Further, the GI50 in assay [5] fell in the range of 0.1 to 1 µM.
As to `CCNC1CCN(c2ccc(C(=O)Nc3cc(Oc4ccccc4C#N)c4nc(C)cn4c3)c3nn(C)cc23)CC1` [Compound 315, N-[8-(2-cyano-phenoxy)-2-methyl-imidazo[1,2-a]pyridin-6-yl]-4-[4-(ethylamino)-1-piperidyl]-2-methyl-indazole-7-carboxamide], the values for the AC50 in assay [1] and in assay [2] were more than 10 µM and 1 to 10 µM, respectively. Also, the IC50 in assay [1], in assay [2], in assay [3] and in assay [4] was more than 10 µM each time. For the same molecule, the GI50 in assay [5] fell in the range of 1 to 10 µM.
In the case of `CCNC1CCN(c2ccc(C(=O)Nc3cc(Oc4ccccc4C)c4nc(C)cn4c3)c3nn(C)cc23)CC1` [Compound 316, 4-[4-(ethylamino)-1-piperidyl]-2-methyl-N-[2-methyl-8-(2-methylphenoxy)imidazo[1,2-a]pyridin-6-yl]indazole-7-carboxamide], the AC50 in assay [1] and in assay [2] was more than 10 µM in each case. Besides, the IC50 in assay [1] was more than 10 µM; in assay [2], 1 to 10 µM; in assay [3], more than 10 µM; in assay [4], 1 to 10 µM. In addition, the GI50 in assay [5] fell in the range of 1 to 10 µM.
On to `CCNC1CCN(c2ccc(C(=O)Nc3cc(C(N)=O)c4nc(C)cn4c3)c3nn(C)cc23)CC1` [Compound 317, N-(8-carbamoyl-2-methylimidazo[1,2-a]pyridin-6-yl)-4-(4-(ethylamino)piperidin-1-yl)-2-methyl-2H-indazole-7-carboxamide 2,2,2-trifluoroacetate], for which the AC50 in assay [1] and in assay [2] was more than 10 µM in each case. For the same molecule, the IC50 in assay [1], in assay [2], in assay [3] and in assay [4] was more than 10 µM in each case. For the same molecule, the GI50 in assay [5] is more than 10 µM.
On to `CCNC1CCN(c2ccc(C(=O)Nc3cc(C(=O)O)c4nc(C)cn4c3)c3nn(C)cc23)CC1` [Compound 318, 6-[[4-[4-(ethylamino)-1-piperidyl]-2-methyl-indazole-7-carbonyl]amino]-2-methyl-imidazo[1,2-a]pyridine-8-carboxylic acid 2,2,2-trifluoroacetic acid], for which the AC50 in assay [1] and in assay [2] was more than 10 µM throughout. Moreover, the IC50 in assay [1], in assay [2], in assay [3] and in assay [4] was more than 10 µM throughout. Also, in assay [5], the concentration for 50% growth inhibition (GI50) is more than 10 µM.
